Results taken from paper PMC12847094, “Casticin inhibits AKR1C3 and enhances abiraterone efficacy in castration-resistant prostate cancer” (Journal of Natural Medicines, 2025).

Target: T1, aldo-keto reductase 1C3 (AKR1C3) (Homo sapiens, UniProt P42330)
T1 construct: recombinant hAKR1C3 expressed in E. coli Rosetta (DE3), pET21b
Experiment: NADPH oxidation at […] nm with […],10-phenanthrenequinone, recombinant enzyme; also coumberone reduction in […]1 cells
Assay type: biochemical

T1 sequence (P42330 whole entry): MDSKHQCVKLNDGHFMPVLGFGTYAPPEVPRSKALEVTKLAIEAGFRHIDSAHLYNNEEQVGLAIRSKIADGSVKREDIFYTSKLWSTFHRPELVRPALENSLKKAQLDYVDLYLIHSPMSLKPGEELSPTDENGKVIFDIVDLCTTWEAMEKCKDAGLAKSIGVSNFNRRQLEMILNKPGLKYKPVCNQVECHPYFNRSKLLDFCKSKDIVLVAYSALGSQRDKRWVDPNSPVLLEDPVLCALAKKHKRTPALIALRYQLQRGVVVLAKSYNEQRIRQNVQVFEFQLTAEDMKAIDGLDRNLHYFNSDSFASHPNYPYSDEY

COc1ccc(-c2oc3cc(OC)c(OC)c(O)c3c(=O)c2OC)cc1O [CAS, casticin]
IC50: 5.99 µM
